Test results reported in patent US20120316105A1, “Polymyxin Derivates Useful As Antibacterial Agents” (priority 2011, published 2012).
Bridge positions count the residues as written; N and C are the ends. Square brackets hold non-standard residues; d marks the D form. Peptide text beside a SMILES is read from it. * marks the point of attachment. X13 = N#Cc1ccc(-c2cc(C(=O)*)ccc2F)cc1; X17 = N#Cc1ccc(-c2cccc(C(=O)*)c2)cc1; X2 = N#Cc1ccc(-c2cc(C(=O)*)ccn2)cc1F; X22 = COc1cccc(-c2cc(C(=O)*)ccn2)c1; X37 = COc1cc(C(=O)*)cc(-c2ccccc2)n1; X20 = Cc1ccc(-c2cccc(C(=O)*)c2)cc1; X10 = COc1nc(-c2ccccc2)ccc1C(=O)*; X24 = COc1ccc(-c2ccccc2)cc1C(=O)*; X27 = O=C(c1cncc(-c2ccccc2)c1)*; X8 = O=C(c1cc(-c2ccccc2)ccc1F)*; Dab = NCC[C@H](N)C(=O)O; Dap = NC[C@H](N)C(=O)O

Legend:
[1] = tested on: EC-1, mouse virulent strain of Escherichia coli; format: cell-based; conditions: E. coli EC-1; overnight incubation, lower of duplicate values; trifluoroacetate salt (Example 1 and PMB sulfate)
In short: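 Compounds were tested mostly as trifluoroacetate salts. Duplicate CLSI broth-dilution MICs were read visually after overnight incubation over 2-fold dilutions, with the lower of duplicates within 2-fold taken. QC organisms and reference drugs were included in each run.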

[2] = tested on: PA-1646, polymyxin-resistant clinical isolate of Pseudomonas aeruginosa; format: cell-based; conditions: PA-1646, polymyxin-resistant clinical isolate of
In short: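 Broth dilution MIC and bactericidal (MBC) testing per CLSI methods (M7-A8, M100-S20, M26-A) against polymyxin-resistant clinical P. aeruginosa isolate PA-1646. Compounds tested as trifluoroacetate salts, one as sulfate salt; values in mg/L.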

[3] = tested on: AB-1649, polymyxin-resistant clinical isolate of Acinetobacter baumannii; format: cell-based; conditions: AB-1649, polymyxin-resistant clinical isolate of
In short: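 Broth dilution MIC per CLSI against the polymyxin-resistant A. baumannii isolate, 2-fold dilutions, overnight incubation, visual read of lowest concentration inhibiting growth. Run in duplicate, lower value reported when within 2-fold; MBC per CLSI M26-A guideline.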

[4] = tested on: AB-3167, clinical isolate of Acinetobacter baumannii; format: cell-based; conditions: AB-3167, clinical isolate of
In short: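 Broth dilution MIC per CLSI (M7-A8, M100-S20, M26-A for bactericidal), 2-fold dilution series, overnight incubation, visual read of lowest concentration inhibiting growth versus drug-free control. Duplicates run; lower value reported if within 2-fold, otherwise repeated. Compounds tested as trifluoroacetate salts; QC strains and reference compounds required in range.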

[5] = tested on: Pseudomonas aeruginosa strain PA01; format: cell-based; conditions: strain
In short: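 CLSI broth dilution against P. aeruginosa PA01 with two-fold concentration steps and overnight incubation; MIC is lowest concentration visibly inhibiting growth versus drug-free control, in mg/L. Compounds tested as trifluoroacetate salts, in duplicate, lower value reported if within 2-fold; control organisms and reference compounds included.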

[6] = tested on: PA-1646, polymyxin-resistant clinical isolate of Pseudomonas aeruginosa; format: cell-based; conditions: PA-1646, polymyxin-resistant clinical isolate of; remark: listed apart in the source
In short: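 Broth dilution MIC per CLSI with 2-fold concentration steps, read visually after overnight incubation as lowest concentration inhibiting growth; duplicates within 2-fold, lower value reported, with QC strains and reference compounds. Compounds tested as trifluoroacetate salts, polymyxin B as sulfate.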

[7] = Cytotoxicity assay (LDH release), hRPTEC; format: cell-based, human; conditions: human
In short: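 hRPTEC grown 72 h in REGM, then exposed to compounds at 100, 67, 44, 30, 20 and 13 micromolar for 24 h at 37° C, 5% CO2. LDH released into supernatant measured; TC50 (micromolar) derived. Compounds tested as trifluoroacetate salts unless otherwise noted.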

[8] = tested on: AB-1649, polymyxin-resistant clinical isolate of Acinetobacter baumannii; format: cell-based; conditions: AB-1649, polymyxin-resistant clinical isolate of; remark: listed apart in the source
In short: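 MIC and MBC were measured by CLSI broth dilution methods (M7-A8, M100-S20, M26-A) against a polymyxin-resistant clinical isolate and reported in mg/L. Compounds were tested as trifluoroacetate salts, with one exception tested as the sulfate.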

Row | Compound | EC-1 MIC [1] | PA-1646 MBC [2] | AB-1649 MIC [3] | AB-3167 MIC [4] | PA01 MIC [5] | PA-1646 MIC [6] | CC50 at 24 h [7] | AB-1649 MBC [8]
1 | COc1cccc(-c2cc(C(=O)N[C@@H](CCN)C(=O)N[C@H](C(=O)N[C@@H](CN)C(=O)N[C@H]3CCNC(=O)[C@H]([C@@H](C)O)NC(=O)[C@H](CCN)NC(=O)[C@H](CCN)NC(=O)[C@H](CC(C)C)NC(=O)[C@@H](Cc4ccccc4)NC(=O)[C@H](CCN)NC3=O)[C@@H](C)O)ccn2)c1 [Example 29] (X22-[Dab]T[Dap][Dab][Dab][dF]L[Dab][Dab]T; lactam 4-C) | 0.5 µg/mL | 32 µg/mL | 4 µg/mL | 0.5 µg/mL | 1 µg/mL | 4 µg/mL | 70 µM | 4 µg/mL
2 | CC(C)C[C@@H]1NC(=O)[C@@H](Cc2ccccc2)NC(=O)[C@H](CCN)NC(=O)[C@@H](NC(=O)[C@H](CN)NC(=O)[C@@H](NC(=O)[C@H](CCN)NC(=O)c2cncc(-c3ccccc3)c2)[C@@H](C)O)CCNC(=O)[C@H]([C@@H](C)O)NC(=O)[C@H](CCN)NC(=O)[C@H](CCN)NC1=O [Example 30] (X27-[Dab]T[Dap][Dab][Dab][dF]L[Dab][Dab]T; lactam 4-C) | 0.125 µg/mL | 4 µg/mL | 4 µg/mL | 0.25 µg/mL | 0.5 µg/mL | 2 µg/mL | 56 µM | 4 µg/mL
3 | CC(C)C[C@@H]1NC(=O)[C@@H](Cc2ccccc2)NC(=O)[C@H](CCN)NC(=O)[C@@H](NC(=O)[C@H](CN)NC(=O)[C@@H](NC(=O)[C@H](CCN)NC(=O)c2ccnc(-c3ccc(C#N)c(F)c3)c2)[C@@H](C)O)CCNC(=O)[C@H]([C@@H](C)O)NC(=O)[C@H](CCN)NC(=O)[C@H](CCN)NC1=O [Example 31] (X2-[Dab]T[Dap][Dab][Dab][dF]L[Dab][Dab]T; lactam 4-C) | 0.5 µg/mL | 8 µg/mL | 4 µg/mL | 0.5 µg/mL | 1 µg/mL | 4 µg/mL | 55 µM | 16 µg/mL
4 | CC(C)C[C@@H]1NC(=O)[C@@H](Cc2ccccc2)NC(=O)[C@H](CCN)NC(=O)[C@@H](NC(=O)[C@H](CN)NC(=O)[C@@H](NC(=O)[C@H](CCN)NC(=O)c2cccc(-c3ccc(C#N)cc3)c2)[C@@H](C)O)CCNC(=O)[C@H]([C@@H](C)O)NC(=O)[C@H](CCN)NC(=O)[C@H](CCN)NC1=O [Example 32] (X17-[Dab]T[Dap][Dab][Dab][dF]L[Dab][Dab]T; lactam 4-C) | 0.25 µg/mL | 4 µg/mL | 4 µg/mL | 0.5 µg/mL | 0.5 µg/mL | 2 µg/mL | 33 µM | 4 µg/mL
5 | CC(C)C[C@@H]1NC(=O)[C@@H](Cc2ccccc2)NC(=O)[C@H](CCN)NC(=O)[C@@H](NC(=O)[C@H](CN)NC(=O)[C@@H](NC(=O)[C@H](CCN)NC(=O)c2ccc(F)c(-c3ccc(C#N)cc3)c2)[C@@H](C)O)CCNC(=O)[C@H]([C@@H](C)O)NC(=O)[C@H](CCN)NC(=O)[C@H](CCN)NC1=O [Example 33] (X13-[Dab]T[Dap][Dab][Dab][dF]L[Dab][Dab]T; lactam 4-C) | 0.5 µg/mL | 8 µg/mL | 4 µg/mL | 1 µg/mL | 2 µg/mL | 2 µg/mL | 30 µM | 4 µg/mL
6 | CC(C)C[C@@H]1NC(=O)[C@@H](Cc2ccccc2)NC(=O)[C@H](CCN)NC(=O)[C@@H](NC(=O)[C@H](CN)NC(=O)[C@@H](NC(=O)[C@H](CCN)NC(=O)c2cc(-c3ccccc3)ccc2F)[C@@H](C)O)CCNC(=O)[C@H]([C@@H](C)O)NC(=O)[C@H](CCN)NC(=O)[C@H](CCN)NC1=O [Example 34] (X8-[Dab]T[Dap][Dab][Dab][dF]L[Dab][Dab]T; lactam 4-C) | 0.125 µg/mL | 8 µg/mL | 16 µg/mL | 0.25 µg/mL | 0.5 µg/mL | 2 µg/mL | 28 µM | 16 µg/mL
7 | COc1cc(C(=O)N[C@@H](CCN)C(=O)N[C@H](C(=O)N[C@@H](CN)C(=O)N[C@H]2CCNC(=O)[C@H]([C@@H](C)O)NC(=O)[C@H](CCN)NC(=O)[C@H](CCN)NC(=O)[C@H](CC(C)C)NC(=O)[C@@H](Cc3ccccc3)NC(=O)[C@H](CCN)NC2=O)[C@@H](C)O)cc(-c2ccccc2)n1 [Example 35] (X37-[Dab]T[Dap][Dab][Dab][dF]L[Dab][Dab]T; lactam 4-C) | 0.25 µg/mL | 1 µg/mL | 4 µg/mL | 0.5 µg/mL | 0.5 µg/mL | 1 µg/mL | 24 µM | 4 µg/mL
8 | COc1ccc(-c2ccccc2)cc1C(=O)N[C@@H](CCN)C(=O)N[C@H](C(=O)N[C@@H](CN)C(=O)N[C@H]1CCNC(=O)[C@H]([C@@H](C)O)NC(=O)[C@H](CCN)NC(=O)[C@H](CCN)NC(=O)[C@H](CC(C)C)NC(=O)[C@@H](Cc2ccccc2)NC(=O)[C@H](CCN)NC1=O)[C@@H](C)O [Example 36] (X24-[Dab]T[Dap][Dab][Dab][dF]L[Dab][Dab]T; lactam 4-C) | 0.5 µg/mL | 2 µg/mL | 4 µg/mL | 0.25 µg/mL | 0.5 µg/mL | 2 µg/mL | 19 µM | 4 µg/mL
9 | Cc1ccc(-c2cccc(C(=O)N[C@@H](CCN)C(=O)N[C@H](C(=O)N[C@@H](CN)C(=O)N[C@H]3CCNC(=O)[C@H]([C@@H](C)O)NC(=O)[C@H](CCN)NC(=O)[C@H](CCN)NC(=O)[C@H](CC(C)C)NC(=O)[C@@H](Cc4ccccc4)NC(=O)[C@H](CCN)NC3=O)[C@@H](C)O)c2)cc1 [Example 37] (X20-[Dab]T[Dap][Dab][Dab][dF]L[Dab][Dab]T; lactam 4-C) | 0.5 µg/mL | 4 µg/mL | 4 µg/mL | 1 µg/mL | 2 µg/mL | 2 µg/mL | 18 µM | 4 µg/mL
10 | COc1nc(-c2ccccc2)ccc1C(=O)N[C@@H](CCN)C(=O)N[C@H](C(=O)N[C@@H](CN)C(=O)N[C@H]1CCNC(=O)[C@H]([C@@H](C)O)NC(=O)[C@H](CCN)NC(=O)[C@H](CCN)NC(=O)[C@H](CC(C)C)NC(=O)[C@@H](Cc2ccccc2)NC(=O)[C@H](CCN)NC1=O)[C@@H](C)O [Example 38] (X10-[Dab]T[Dap][Dab][Dab][dF]L[Dab][Dab]T; lactam 4-C) | 0.25 µg/mL | 1 µg/mL | 4 µg/mL | 0.25 µg/mL | 1 µg/mL | 1 µg/mL | 16 µM | 4 µg/mL
